Experimental data as given in publication PMC4999848 (Toxins, 2016).
Several values for one entry are separate records, joined by “and”; a condition that tells them apart may be missing. Identical values can stand only once.

Assays:
trypsin = target: T1, trypsin (Sus scrofa, UniProt P00761); assay: Deacetylation of 3/15ADON by trypsin; format: in vitro ADME, porcine; conditions: trypsin 0.35 mg/mL, PBS pH 7.4, 37 °C, substrate 100 μM
T1 construct: purchased Sigma-Aldrich
Description: (§1) Stock solutions of DON, 3ADON and 15ADON at 2 mg/mL were prepared in absolute ethanol and stored at −20 °C. For deacetylation assay, 3- or 15ADON were incubated with cells, explants, bacteria or digestive enzymes after being diluted in PBS^++ at a final concentration of 100 μM. PBS^++ solution containing only ethanol (at 1.5% final concentration) or DON (at 100 μM) were used in parallel as negative and positive control, respectively. For cells and explants, deacetylation assay take place in 6-well plates, wells being filled with 2 mL of PBS^++ containing either ethanol, DON, 3- or 15ADON. For fecal bacteria and digestive enzyme assay, deacetylation assay was conducted in 2 mL Eppendorf tubes filled with 1.5 mL of PBS^++ containing either ethanol, DON, 3- or 15ADON. In vitro intestinal digestion by luminal enzymes was performed using porcine enzymes from Sigma-Aldrich and physiological conditions. […] In all cases, aliquots of the reaction solution were collected immediately (i.e., “time zero” sample) or after the indicated time period at 37 °C and analyzed by HPLC. […]
(§2) Deacetylation was monitoring both in term of disappearance of 3- or 15ADON and formation of DON. […] Quantification was based on calibration with the corresponding standard using Millinium Software (Waters, Saint Quentin Falavier, France).

pancreatin = assay: Deacetylation of 3/15ADON by pancreatin; format: in vitro ADME, porcine; conditions: pancreatin 1.23 mg/mL, PBS pH 7.4, 37 °C, substrate 100 μM
Description: as §1, §2

A498 cells = assay: Deacetylation of 3/15ADON by A498 cells; format: in vitro ADME, human
Description: A498, Caco-2, T84 and HepG2 cells were used as models of human renal, small intestinal, colonic and hepatic cells, respectively. Cells were routinely grown in culture media (Dulbecco’s Modified Eagle Medium (DMEM), DMEM:F12 mixture and Minimum Essential Media (MEM) for A498/Caco-2, T84 and HepG2 cells, respectively) supplemented with 10% fetal calf serum and 1% antibiotics (streptomycin–penicillin solution). Cells were grown in 25 cm^2 ventilated flask maintained at 37 °C in a 5% CO2 incubator. Cells were routinely passed using trypsin-EDTA solution. For deacetylation experiments, cells were seeded onto 6-well plates at an initial density of 200,000 cells/cm^2. HepG2 and A498 were used 3–4 days post-seeding when confluence was reached. Caco-2 and T84 cells were let to differentiate for 10–14 days post-seeding before being used. In all cases, cells were washed three times with sterile phosphate buffer saline PBS^++ (PBS containing 100 mg/L of calcium and magnesium salts) before deacetylation assay.
Stock solutions of DON, 3ADON and 15ADON at 2 mg/mL were prepared in absolute ethanol and stored at −20 °C. […] In all cases, aliquots of the reaction solution were collected immediately (i.e., “time zero” sample) or after the indicated time period at 37 °C and analyzed by HPLC. […]

colonic explant = assay: Deacetylation of 3/15ADON by human colonic explants; format: in vitro ADME; conditions: for Disappearance of 3/15ADON, specific activity: colonic explant, 37 °C, substrate 100 μM; for % of deacetylation: colonic explants, 6 h incubation, 100 μM; for Contribution to total deacetylation activity: Colon: percentage of sum of specific activities (Figure 8)
From the text: Human tissue samples were obtained from patients undergoing surgery at the Hospital Nord of Marseille, unit of general and gastrointestinal surgery according to a collaborative “clinical transfer” project. The procedures were approved by the French ethic committee (CODECOH n° DC-2011-1319). Patients were from both genders (six men, three women), 31–74 years of age, all of European origin. All patients agree to use their tissues for research purposes. Samples were taken from macroscopically unaffected area as identified by the surgeon for intestinal samples or the pathologist for liver resections. Diagnoses leading to surgery were carcinoma for intestine or liver. After resection, the specimens were placed in ice-cold non-sterile Krebs solution implemented and transferred to the school of medicine on the same campus within 5 min, composition of the Krebs solution being previously described. The tissues were rinsed several times and maintained in oxygenated Krebs during 1 h for recovery before final dissection. Intestinal and hepatic resections were extensively washed and maintained in ice-cold culture media containing 1% streptomycin/penicillin solution and 50 μg/mL gentamycin. Tissues were cleaned from vascular vessels and conjunctive tissue using forceps under binocular microscope. In case of intestinal resection, muscularis and plexus were removed and only epithelial layer was kept. Intestinal and hepatic explants (wet weight of 20–30 mg) were then isolated from the cleaned resections using surgical punch (diameter of […]). […] Finally, the explants were washed 3 times with PBS^++ and transferred into 6-well plates before being used for deacetylation assay.
Stock solutions of DON, 3ADON and 15ADON at 2 mg/mL were prepared in absolute ethanol and stored at −20 °C. For deacetylation assay, 3- or 15ADON were incubated with cells, explants, bacteria or digestive enzymes after being diluted in PBS^++ at a final concentration of 100 μM. PBS^++ solution containing only ethanol (at 1.5% final concentration) or DON (at 100 μM) were used in parallel as negative and positive control, respectively. For cells and explants, deacetylation assay take place in 6-well plates, wells being filled with 2 mL of PBS^++ containing either ethanol, DON, 3- or 15ADON. For fecal bacteria and digestive enzyme assay, deacetylation assay was conducted in 2 mL Eppendorf tubes filled with 1.5 mL of PBS^++ containing either ethanol, DON, 3- or 15ADON. In vitro intestinal digestion by luminal enzymes was performed using porcine enzymes from Sigma-Aldrich and physiological conditions. Briefly, 3- or 15ADON were incubated with pepsin (at 1.6 mg/mL corresponding to 900 U/mL), trypsin (at 0.35 mg/mL corresponding to 6000 U/mL), pancreatic lipase (at 0.75 mg/mL corresponding to 18 U/mL) or pancreatin (at 1.23 mg/mL, lipase activity >10 U/mL, protease activity >100 U/mL, amylase activity >100 U/mL). Except for pepsin for which the digestion was conducted in HCl solution at 10 mM (pH 2.3), in vitro digestion was performed in PBS^++ (pH 7.4). Finally, deacetylation assay was also performed with commercial pooled S9 fractions from human liver, small intestine and kidneys as well as with pure recombinant human CES1 and CES2. S9 fractions and CES1/2 were used at 0.1 mg/mL and 5 μg/mL (corresponding to CES activity >20 U/mL), respectively. In all cases, aliquots of the reaction solution were collected immediately (i.e., “time zero” sample) or after the indicated time period at 37 °C and analyzed by HPLC. […] In all cases, the experiments were conducted in triplicate (n = 3).

[1] = tested on: pepsin and pancreatic enzymes (pancreatin, trypsin, lipase); assay: Deacetylation of 3/15ADON by luminal digestive enzymes (taken together); format: in vitro ADME, porcine; conditions: percentage of sum of specific activities (Figure 8)
Description: as §1, §2

T1 sequence (P00761 9-231): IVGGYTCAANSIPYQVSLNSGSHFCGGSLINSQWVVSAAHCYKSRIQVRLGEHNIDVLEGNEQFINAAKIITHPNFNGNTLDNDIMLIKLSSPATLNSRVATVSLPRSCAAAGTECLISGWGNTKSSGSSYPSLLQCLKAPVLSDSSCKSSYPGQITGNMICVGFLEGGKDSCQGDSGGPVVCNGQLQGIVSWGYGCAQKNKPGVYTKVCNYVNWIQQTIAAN

Structure (SMILES) | Disappearance of 3/15ADON, specific activity (trypsin) [pmol/min/mg] | Disappearance of 3/15ADON, specific activity (pancreatin) [pmol/min/mg] | Activity of renal cells on 15ADON (A498 cells; in words) | Disappearance of 3/15ADON, specific activity (colonic explant) | % of deacetylation (colonic explant) | Contribution to total deacetylation activity: Colon (colonic explant) [%] | Contribution to total deacetylation activity: Pancreatic enzymes [1] [%] | Disappearance of 3/15ADON, specific activity (A498 cells; A498, 37 °C, substrate 100 μM)
CC(=O)OC[C@]12[C@H](O)C(=O)C(C)=C[C@H]1O[C@@H]1[C@H](O)C[C@@]2(C)[C@]12CO2 [15ADON, 15-acetyldeoxynivalenol] | 94 ± 62 | 26 ± 17 | virtually inactive | 4.5 pmol/min/mg and 4.5 ± 5.6 pmol/min/mg | 0.2% ± 1.2% | 0.7 | 26 | –
CC(=O)O[C@@H]1C[C@]2(C)[C@@]3(CO)[C@H](O)C(=O)C(C)=C[C@H]3O[C@H]1[C@@]21CO1 [3ADON, 3-acetyldeoxynivalenol] | 57 ± 19 | 24 ± 16 | – | 22 ± 13 pmol/min/mg | 4.2% ± 3.1% | 1.7 | 10 | 79 pmol/min/mg and 79 ± 46 pmol/min/mg
